Type in all cases: physicochemical
The nature of data set [1]: Crystalline form before and after formulation process (XRPD).
Data set [2] is described as follows: DVS humidity cycle 0% RH-95% RH-0% RH, crystalline form by XRPD. The note with it: XRPD before and after. The protocol:
Dynamic Vapor Sorption (DVS) is measured via an SMS (Surface Measurement Systems Ltd.) intrinsic DVS instrument. Its control software is DVS-Intrinsic control software. Typical parameters for DVS test are as follows: • Temperature: 25° C. • Gas and flow rate: N2, 200 mL/min • RH range: 0% RH to 95% RH
It can be seen that Form CSVI has good stability under accelerated conditions. Form CSVI is stable for at least 1 month under 60° C./75% RH (sealed) condition. It can be seen that Form CSVI has good stability under more stressed condition as well. Approximately 10 mg of Form CSVI in the present disclosure underwent a humidity cycle of 0% RH-95% RH-0% RH with a dynamic vapor sorption (DVS) analyzer.
Approximately 10 mg of Form CSVII in the present disclosure underwent a humidity cycle of 0% RH-95% RH-0% RH with a dynamic vapor sorption (DVS) analyzer.

Data set [3] in a line: Kinetic solubility in FeSSIF, FaSSIF and pH 7.4 PBS (HPLC). The note with it: for solubility at 24 h / solubility at 48 h: thermodynamic from solid. The procedure: The method parameters of kinetic solubility test in the present disclosure are as follows:
Approximately 15-30 mg of Form CSVI in the present disclosure was suspended into 1.8 mL of FeSSIF, 1.8 mL of FaSSIF and 1.8 mL of pH=7.4 PBS. After equilibration for 24 hours and 48 hours, the concentration of upadacitinib in saturated solutions were tested by HPLC and the results are listed in Table 2.
Approximately 15-30 mg of Form CSVII in the present disclosure was suspended into 1.8 mL of FeSSIF, 1.8 mL of FaSSIF and 1.8 mL of pH=7.4 PBS. After equilibration for 24 hours and 48 hours, the concentration of upadacitinib in saturated solutions was tested by HPLC and the results are listed in Table 5.

A short description of data set [4]: Stability of drug substance on storage (XRPD crystalline form, HPLC purity). As to conditions: for Chemical purity during storage: storage conditions of the stability test. The protocol:
The method parameters for related substances test in the present disclosure are as follows:
Approximately 5 mg of Form CSVI in the present disclosure was stored under 40° C./75% RH and 60° C./75% RH conditions. The purity and crystalline form were tested before and after storage by HPLC and XRPD. The results are listed in Table 3 and the XRPD overlay is substantially as depicted in FIG. 4.
Approximately 5 mg of Form CSVII in the present disclosure was stored under 25° C./60% RH, 40° C./75% RH and 60° C./75% RH conditions. The purity and crystalline form were tested before and after storage by HPLC and XRPD. The results are listed in Table 6 and the XRPD overlay is substantially as depicted in FIG. 10.

Where [5] appears, read: 40° C./75% RH, Sealed, 6 months.
Setting [6] is: 25° C./60% RH, Sealed, 6 months.

≈ marks a conversion by molar mass, not a printed value.

As a reminder, the solubility is the dissolved amount per volume that the medium holds. A high value points to much dissolved substance. On to `CC[C@@H]1CN(C(=O)NCC(F)(F)F)C[C@@H]1c1cnc2cnc3[nH]ccc3n12` [Form CSVI, (3S,4R)-3-ethyl-4-(3H-imidazo[1,2-a]pyrrolo[2,3-e]pyrazin-8-yl)-N-(2,2,2-trifluoroethyl) pyrrolidine-1-carboxamide], for which, in data set [1], the “Physical stability after formulation procedure” value is on record as “physically stable”. Moreover, the “Form change after DVS test” value in data set [2] is “no form change is observed”. For the same compound, the solubility at 24 h in data set [3] (FaSSIF, 37 °C, pH 6.5, fassif, FaSSIF (pH 6.5, 37° C.), 24 hours) came out at 1870 µg/mL (≈ 4.92 mM); in data set [3] (FeSSIF, 37 °C, pH 5, fessif, FeSSIF (pH 5.0, 37° C.), 24 hours) it was 2200 µg/mL (≈ 5.78 mM); in data set [3] (PBS, 25 °C, pH 7.4, aqueous buffer, pH 7.4, 25° C., 24 hours), 880 µg/mL (≈ 2.31 mM). Also, the solubility at 48 h is 1710 µg/mL (≈ 4.5 mM) in data set [3] (FaSSIF, 37 °C, pH 6.5, fassif, FaSSIF (pH 6.5, 37° C.), 48 hours); 2220 µg/mL (≈ 5.84 mM) in data set [3] (FeSSIF, 37 °C, pH 5, fessif, FeSSIF (pH 5.0, 37° C.), 48 hours); 850 µg/mL (≈ 2.23 mM) in data set [3] (PBS, 25 °C, pH 7.4, aqueous buffer, pH 7.4, 25° C., 48 hours). In addition, the “Time for which the form is stable (crystalline state unchanged)” value in data set [4] (40° C./75% RH (open)) is reported as “at least 6 months”; in data set [4] (40° C./75% RH (sealed)) it was “at least 6 months”; in data set [4] (60° C./75% RH (sealed)), “at least 1 month”. The Purity in data set [4] (40° C./75% RH, Open, 6 months) was found to be 99.89%; in data set [4] (setting [5]), 99.92%; in data set [4] (60° C./75% RH, Sealed, 1 month) it was 99.91%; in data set [4] (Initial) it was 99.89%. Further, the Solid form entry was “Form CSVI” in data set [4] (40° C./75% RH, Open, 6 months); “Form CSVI” in data set [4] (setting [5]); “Form CSVI” in data set [4] (60° C./75% RH, Sealed, 1 month); “Form CSVI” in data set [4] (Initial). Moreover, the “Chemical purity during storage” value in data set [4] is recorded as “above 99.8%”.

Usually Solubility stands for the concentration that dissolves in the medium under given conditions. Low readings indicate little dissolved substance, high ones much dissolved substance. Regarding `CC[C@@H]1CN(C(=O)NCC(F)(F)F)C[C@@H]1c1cnc2cnc3[nH]ccc3n12` [Form CSVII, (3S,4R)-3-ethyl-4-(3H-imidazo[1,2-a]pyrrolo[2,3-e]pyrazin-8-yl)-N-(2,2,2-trifluoroethyl) pyrrolidine-1-carboxamide], the “Physical stability after formulation procedure” value in data set [1] is reported as “physically stable”. Further, the “Form change after DVS test” value in data set [2] is given as “no form change is observed”. For the same compound, the Solubility in data set [3] (FaSSIF (pH 6.5, 37° C.), 24 hours) was found to be 2020 µg/mL (≈ 5.31 mM); in data set [3] (FaSSIF (pH 6.5, 37° C.), 48 hours), 2170 µg/mL (≈ 5.7 mM); in data set [3] (FeSSIF (pH 5.0, 37° C.), 24 hours), 2280 µg/mL (≈ 5.99 mM); in data set [3] (FeSSIF (pH 5.0, 37° C.), 48 hours), 2470 µg/mL (≈ 6.49 mM); in data set [3] (pH 7.4, 25° C., 24 hours), 920 µg/mL (≈ 2.42 mM); in data set [3] (pH 7.4, 25° C., 48 hours), 850 µg/mL (≈ 2.23 mM). The Purity in data set [4] (25° C./60% RH, Open, 6 months) came out at 99.91%; in data set [4] (setting [6]), 99.92%; in data set [4] (setting [5]), 99.92%; in data set [4] (60° C./75% RH, Sealed, 1 month) it was 99.92%; in data set [4] (Initial), 99.92%. For the same compound, the Solid form result in data set [4] (25° C./60% RH, Open, 6 months) is “Form CSVII”; in data set [4] (setting [6]), “Form CSVII”; in data set [4] (setting [5]) it was “Form CSVII”; in data set [4] (60° C./75% RH, Sealed, 1 month), “Form CSVII”; in data set [4] (Initial), “Form CSVII”. For the same compound, the “Chemical purity during storage” value in data set [4] is listed as “above 99.9%”.

For the origin of these results see patent US11572365B2, “Crystal form of upadacitinib, preparation method therefor, and use thereof” (CRYSTAL PHARMACEUTICAL (SUZHOU) CO., LTD., priority 2021, dated 2023).
